Experimental data from PubChem BioAssay (NCI).
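A five-concentration, 48-hour dose response in 96-well plates underlies each endpoint, interpolated linearly between surrounding concentrations. Definition used: TGI = concentration required for complete inhibition of growth.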 *1 amine or outer side, *2 acyl side, *3 side chain or, on linkers, in order; H or OH if unused. Where a SMILES comes first, the peptide text is derived from it. Bridges are numbered along the chain shown (N, C = ends). Roman numbers before positions name the chains, in order. [ ]: non-standard residue; d: D form. Actinocin(9to1) = Cc1c2oc3c(C)ccc(C(=O)[*:1])c3nc-2c(C(=O)[*:2])c(N)c1=O; NMeV = CN[CH](C(=O)O)C(C)C; Sar = CNCC(=O)O

Legend:
Test in all cases: growth of human tumour cells (NCI), 48 h
[1] = tested on: IGROV1 ovarian
[2] = tested on: SW-620 colon
[3] = tested on: HL-60(TB) leukemia
[4] = tested on: NCI-H522 lung
[5] = tested on: SR leukemia
[6] = tested on: HOP-62 NSCLC
[7] = tested on: DU-145 prostate
[8] = tested on: HCT-15 colon
[9] = tested on: SF-295 CNS
[10] = tested on: HS 578T breast

| SMILES | TGI [1] [µM] | TGI [2] [µM] | TGI [3] [µM] | TGI [4] [µM] | TGI [5] [µM] | TGI [6] [µM] | TGI [7] [µM] | TGI [8] [µM] | TGI [9] [µM] | TGI [10] [µM] |
| --- | --- | --- | --- | --- | --- | --- | --- | --- | --- | --- |
| O=c1[nH]c(=O)n(Cc2ccccc2CO)cc1Sc1ccccc1 | 29 | > 100 | > 100 | 3.81 | > 100 | > 100 | > 100 | 53.5 | > 100 | 60.6 |
| CN(C)CCNC(=O)c1cccc2nc3c(nc12)-c1ccccc1C3=O | > 71.1 | 39.4 | 22.7 | 30.7 | > 21.5 | 16.6 | 70 | 41.4 | 39 | 44 |
| Cc1sc(/N=C/c2c[nH]c3ccccc23)c(C#N)c1C | > 100 | > 100 | > 100 | > 100 | > 100 | > 100 | > 100 | > 100 | > 100 | > 100 |
| Cc1nc2ccc(S(=O)(=O)O)cc2c(=O)n1-c1ccc(C(=O)NN2C(=O)C(Cl)C2c2ccccc2O)cc1 (centres undefined) | > 100 | > 100 | > 100 | > 100 | > 100 | > 100 | > 100 | > 100 | > 100 | > 100 |
| O=C1C(Br)=CC2(C=C1Br)CCNC1=C2C(=O)c2cccnc2C1=O | 21.8 | 27.3 | 15.8 | 13.9 | 18.5 | 21.3 | 23.5 | 22.6 | 21 | 45.3 |
| O=C1/C(=C/c2ccccc2[N+](=O)[O-])N=C(c2ccccc2)N1C1Nc2cc3c(cc2S1)NC(N1C(=O)/C(=C/c2ccccc2[N+](=O)[O-])N=C1c1ccccc1)S3 (centres undefined) | > 100 | > 100 | 96.2 | 77.9 | 90.3 | > 100 | > 100 | > 100 | > 100 | > 100 |
| Cc1c2oc3c(C)ccc(C(=O)NC4C(=O)NC(C(C)O)C(=O)N5CCCC5C(=O)N(C)CC(=O)N(C)C(C(C)C)C(=O)OC4C)c3nc-2c(C(=O)NC2C(=O)NC(C(C)O)C(=O)N3CCCC3C(=O)N(C)CC(=O)N(C)C(C(C)C)C(=O)OC2C)c(N)c1=O (centres undefined) (I: TTP[Sar][NMeV] / II: TTP[Sar][NMeV]; ester I:1-I:C, II:1-II:C; linker I:N-II:N via Actinocin(9to1); configuration not given here) | > 100 | > 100 | 5.12 | 1.14 | 0.047 | 10 | > 100 | > 100 | > 100 | 72 |
| CC[C@H](C)[C@H]1NC(=O)[C@@H](NC(=O)[C@@H](CC(C)C)N(C)CC2CCCN2C(=O)C(C)=O)[C@@H](C)OC(=O)[C@H](Cc2ccc(OC)cc2)N(C)C(=O)C2CCCN2C(=O)[C@H](CC(C)C)NC(=O)[C@@H](C)C(=O)[C@H](C(C)C)OC(=O)C[C@@H]1O (some centres undefined) | 0.016 | 1.8 | 0.021 | 0.0523 | 0.00471 | 0.00713 | 0.0032 | 0.73 | 0.042 | 0.0144 |
| Fc1ccc(N=NN2CCCC2)cc1 | > 100 | > 100 | > 100 | > 100 | > 100 | > 100 | > 100 | > 100 | > 100 | > 100 |
| CC(C)(C)C1(COC(=O)c2ccc(N)cc2)COC1 | > 100 | > 100 | > 100 | > 100 | > 100 | > 100 | > 100 | > 100 | > 100 | > 100 |
| O=C1C=C(Br)c2c(Br)sc(Br)c21 | 16.5 | > 20.6 | 29.2 | 3.99 | > 100 | > 79.9 | 29 | 20.5 | 99.4 | > 100 |
| COC(=O)/C=C(/C(=O)OC)c1c(C)c(C)c2c(C)cc(C)cc(C)c1-2 | > 100 | > 100 | > 100 | 52.3 | > 100 | 81 | > 100 | > 100 | > 100 | 62.2 |
| COc1cc(CC2c3cc(OC)c(OC)cc3CCN2C)c(Oc2cc3c(cc2OC)-c2c(O)c(OC)cc4c2C(C3)N(C)CC4)cc1OC (centres undefined) | 45.1 | > 100 | 17.9 | 39.3 | 17.5 | > 100 | > 100 | 33.1 | 35.4 | 45.2 |
| O=C1c2c(nc3ccccc3c2-c2ccccc2)CN1Nc1ccccn1 | > 100 | > 100 | > 100 | > 100 | > 100 | > 100 | > 100 | > 100 | > 100 | 67.4 |
| O=[N+]([O-])c1ccc(N=Nc2c(O)c(S(=O)(=O)O)cc3cc(S(=O)(=O)O)ccc23)cc1 | > 100 | > 100 | > 100 | > 100 | > 100 | > 100 | > 100 | > 100 | > 100 | > 100 |
| [N-]=[N+]=NCc1cccc(Nc2cc(=O)[nH]c(=O)[nH]2)c1 | > 100 | > 100 | > 100 | > 100 | > 100 | > 100 | > 100 | > 100 | > 100 | > 100 |
| C=CCSC1=N/C(=C\c2ccccc2)C(=O)N1CC=C | > 100 | > 100 | 18.7 | > 100 | > 61.6 | > 100 | > 100 | > 100 | > 100 | > 89.4 |

| SMILES | TGI [1] [µM] | TGI [2] [µM] | TGI [3] [µM] | TGI [4] [µM] | TGI [5] [µM] | TGI [6] [µM] | TGI [7] [µM] | TGI [8] [µM] | TGI [9] [µM] | TGI [10] [µM] |
| --- | --- | --- | --- | --- | --- | --- | --- | --- | --- | --- |
| N#Cc1c(N2CCCC2)ncn(Cc2ccccc2)c1=O | > 100 | > 100 | > 100 | > 100 | > 100 | > 100 | > 100 | > 100 | > 100 | > 100 |
| O=S1(=O)c2ccccc2C(=NO)c2ccccc21 | > 100 | > 100 | 36.2 | > 100 | > 100 | > 100 | > 100 | > 100 | > 100 | > 100 |
| NC(=S)Nc1[nH]c(=S)nc2c1SC1=N/C(=C\c3ccco3)C(=O)N12 | > 100 | > 100 | 46.8 | > 100 | > 70.7 | > 100 | > 100 | > 100 | > 100 | > 100 |
| Cc1[nH]c2ccccc2c1C=Nc1ccc(N=Cc2c(C)[nH]c3ccccc23)cc1 | > 100 | 70.2 | 41.8 | 41.9 | 46.9 | > 100 | > 100 | > 100 | > 100 | > 100 |
| COc1ccc(-c2c(N)n(-c3cccc(C(=O)O)c3)c(=O)c3cc([N+](=O)[O-])ccc23)cc1 | > 100 | > 100 | > 100 | > 100 | > 100 | > 100 | > 100 | > 100 | > 100 | > 100 |
| CCOc1nc(-c2ccccc2)cc(-c2ccc(N3CCOCC3)cc2)c1C#N | > 100 | > 100 | > 100 | > 100 | > 100 | > 100 | > 100 | > 100 | > 100 | > 100 |
| O=C(OCc1ccccc1)C1(N2CN(C3(C(=O)OCc4ccccc4)CCCC3)CN(C3(C(=O)OCc4ccccc4)CCCC3)C2)CCCC1 | > 10 | > 10 | > 10 | > 10 | > 10 | > 10 | > 10 | > 10 | > 10 | > 10 |
| CCOC(=O)/C=C(\C(=O)OCC)n1ccc(N)nc1=O | > 100 | > 100 | > 100 | 40.8 | > 100 | > 100 | > 100 | > 100 | > 100 | > 100 |
| OC1(c2cc3ccccc3s2)CCCCC1 | > 100 | > 100 | > 100 | 65.6 | > 100 | > 100 | > 100 | > 100 | > 100 | 87.5 |
| CN(NC(=O)CCCl)C1=NCCCCN1 | > 100 | > 100 | > 100 | > 100 | > 100 | > 100 | > 100 | > 100 | > 100 | > 100 |
| Oc1ccc(SCc2cc(O)c(O)c(O)c2)cc1 | 57.8 | > 100 | > 100 | 61.4 | > 100 | 56.4 | > 100 | > 100 | 29.8 | > 100 |
| C=CCNC(=O)NC1=CSC2=NC(=O)C3(NN12)c1ccccc1-c1ccccc13 | > 10 | > 10 | > 10 | > 10 | > 10 | > 10 | > 10 | > 10 | > 10 | > 10 |
| C(=C\c1ccccc1)/C=N/c1nc2cc3sc(/N=C/C=C/c4ccccc4)nc3cc2s1 | > 100 | > 100 | > 100 | > 100 | 32.4 | > 100 | > 100 | > 100 | > 100 | > 100 |
| NC(=O)c1ccc2c(c1)S(=O)(=O)c1ccccc1C2=O | > 100 | > 100 | > 100 | > 100 | > 100 | > 100 | > 100 | > 100 | > 100 | > 100 |
| O=c1c2cc(I)ccc2nc(Sc2ncccc2[N+](=O)[O-])n1Cc1ccccc1 | > 100 | > 100 | 2.02 | 78 | > 100 | > 100 | > 100 | > 100 | > 100 | 92.3 |
| Cc1ccc(N2CCc3c(C)c(C#N)c4nc5ccccc5n4c32)cc1 | > 100 | > 100 | > 100 | > 100 | > 100 | > 100 | > 100 | > 100 | > 100 | 48.3 |
| O=C1Cc2c([nH]c3ccc(Br)cc23)-c2ccccc2N1 | > 100 | – | > 53.8 | > 100 | > 100 | > 100 | > 100 | > 100 | > 100 | > 100 |
